Results from ChEMBL document CHEMBL5506068 (J Med Chem, 2024).
Activity calls are given as the source filed them. The calls are words filed in the database; no cut-off is given here.

How the values were obtained:
[1] = biological target: Kappa-type opioid receptor (Mus musculus, UniProt P33534); test: Displacement of [3H]diprenorphine from mouse KOR expressed in CHO cells assessed as dissociation constant incubated for […] by radioligand binding assay; type: cell-based
Mu-type opioid receptor = Mu-type opioid receptor (Mus musculus, UniProt P42866); test: Displacement of [3H]Naloxone from mouse MOR expressed in CHO cells assessed as dissociation constant incubated for […] by radioligand binding assay; type: cell-based
[2] = biological target: T1, Delta-type opioid receptor (Homo sapiens, UniProt P41143); test: Displacement of [3H]diprenorphine from human DOR expressed in CHO cells assessed as dissociation constant incubated for […] by radioligand binding assay; type: cell-based
Mus musculus [3] = test: Antinociception activity in male Swiss Webster mouse model assessed as increase in maximum possible effect at 10 mg/kg, sc measured after 20 mins by warm-water tail immersion assay relative to control; type: functional
[4] = biological target: T1, Delta-type opioid receptor; test: Agonist activity at human DOR expressed in CHO cells increase in [35S]GTPgammaS binding measured after […] by scintillation counter analysis relative to SNC80; type: functional, cell-based; settings: filed as agonist
Mus musculus [5] = test: Antinociception activity in male Swiss Webster mouse model assessed as increase in maximum possible effect at 0.1 mg/kg, sc measured after 30 to 360 mins post injection by warm-water tail immersion assay; type: functional, organism-based; settings: time 30-360 min
Mus musculus [6] = test: Antinociception activity in male Swiss Webster mouse model assessed as increase in maximum possible effect at 0.05 mg/kg, sc measured until 3 hrs post injection by warm-water tail immersion assay; type: functional, organism-based
Mus musculus [7] = test: Antinociception activity in male Swiss Webster mouse model assessed as increase in maximum possible effect at 0.05 mg/kg, sc measured after 6 hrs post injection by warm-water tail immersion assay; type: functional, organism-based
[8] = Toxicity in Swiss Webster mouse assessed as reduction in sedative effect at 0.05 to 0.5 mg/kg,sc; type: organism-based; settings: in vivo, dose 0.05-0.5 mg/kg
[9] = Toxicity in Swiss Webster mouse assessed as effect on locomotion at 0.05 to 0.5 mg/kg,sc measured after 30 mins; type: organism-based; settings: in vivo, 0.5 h, dose 0.05-0.5 mg/kg
[10] = Toxicity in Swiss Webster mouse assessed as effect on average speed at 0.05 to 0.5 mg/kg,sc measured after 30 mins; type: organism-based; settings: in vivo, 0.5 h, dose 0.05-0.5 mg/kg
[11] = Abuse liability in male Sprague-Dawley rat assessed as reduction in reinforcement at 0.32 to 10 microg/kg administered per infusion; type: toxicity; settings: in vivo, iv, dose 0.32-10 µg/kg
[12] = Drug uptake in Swiss Webster mouse plasma at 0.1 mg/kg, sc measured after 5 mins by LC-MS/MS analysis; type: ADME, organism-based; settings: in vivo
Mus musculus [13] = test: Antinociception activity in male Swiss Webster mouse model assessed as effect on tail withdrawal latency at 0.05 to 0.1 mg/kg, sc pre incubated with naltrindole for 30 mins followed by compound addition and measured after 20 mins by warm water tail immersion assay; type: functional, organism-based; settings: dose 0.05-0.1 mg/kg
Mus musculus [14] = test: Antinociception activity in male Swiss Webster mouse model assessed as effect on tail withdrawal latency at 0.05 to 0.1 mg/kg, sc pre incubated with nor-BNI for 24 hrs followed by compound addition and measured after 20 mins by warm water tail immersion assay; type: functional, organism-based; settings: dose 0.05-0.1 mg/kg
Mus musculus [15] = test: Antinociception activity in male Swiss Webster mouse model assessed as effect on tail withdrawal latency at 0.05 to 0.1 mg/kg, sc pre incubated with nor-BNI/naltrindole for 24 hrs followed by compound addition and measured after 20 mins by warm water tail immersion assay; type: functional, organism-based; settings: dose 0.05-0.1 mg/kg
in vivo [16] = settings: Swiss Webster, mouse, blood and plasma, sc, 0.1 mg/kg
Description: Ratio of drug level in Swiss Webster mouse blood to plasma at 0.1 mg/kg, sc measured after 10 mins by LC-MS/MS analysis

in vivo [17] = settings: Swiss Webster, mouse, blood and plasma, sc, 0.1 mg/kg; remark: listed apart in the source
Description: Ratio of drug level in Swiss Webster mouse blood to plasma at 0.1 mg/kg, sc measured after 30 mins by LC-MS/MS analysis

in vivo [18] = settings: Swiss Webster, mouse, blood and plasma, sc, 0.1 mg/kg; remark: listed apart in the source
Description: Ratio of drug level in Swiss Webster mouse blood to plasma at 0.1 mg/kg, sc measured after 60 mins by LC-MS/MS analysis

T1 sequence (P41143 whole entry): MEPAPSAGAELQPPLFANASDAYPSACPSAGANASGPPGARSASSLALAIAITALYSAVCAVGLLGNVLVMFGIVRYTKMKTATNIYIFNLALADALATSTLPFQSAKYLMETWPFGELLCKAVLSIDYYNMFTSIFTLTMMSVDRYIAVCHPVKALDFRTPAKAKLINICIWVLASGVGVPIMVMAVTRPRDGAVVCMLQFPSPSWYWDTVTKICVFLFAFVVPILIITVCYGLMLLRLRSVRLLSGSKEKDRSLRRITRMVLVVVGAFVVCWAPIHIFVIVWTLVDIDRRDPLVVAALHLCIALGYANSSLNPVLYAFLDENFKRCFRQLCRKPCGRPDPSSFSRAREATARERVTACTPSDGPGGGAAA
Chain of Mu-type opioid receptor (P42866 whole entry): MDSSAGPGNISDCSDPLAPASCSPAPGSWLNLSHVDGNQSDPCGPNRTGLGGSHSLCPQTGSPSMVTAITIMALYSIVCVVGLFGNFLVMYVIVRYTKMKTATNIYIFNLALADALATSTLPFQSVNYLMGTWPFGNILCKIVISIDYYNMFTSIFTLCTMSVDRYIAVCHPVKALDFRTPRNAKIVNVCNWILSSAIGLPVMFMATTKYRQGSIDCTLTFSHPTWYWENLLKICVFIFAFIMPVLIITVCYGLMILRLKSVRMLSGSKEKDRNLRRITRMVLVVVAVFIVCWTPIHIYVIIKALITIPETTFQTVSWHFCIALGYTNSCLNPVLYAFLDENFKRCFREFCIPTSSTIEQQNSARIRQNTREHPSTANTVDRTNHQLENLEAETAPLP
Chain of Kappa-type opioid receptor (P33534 whole entry): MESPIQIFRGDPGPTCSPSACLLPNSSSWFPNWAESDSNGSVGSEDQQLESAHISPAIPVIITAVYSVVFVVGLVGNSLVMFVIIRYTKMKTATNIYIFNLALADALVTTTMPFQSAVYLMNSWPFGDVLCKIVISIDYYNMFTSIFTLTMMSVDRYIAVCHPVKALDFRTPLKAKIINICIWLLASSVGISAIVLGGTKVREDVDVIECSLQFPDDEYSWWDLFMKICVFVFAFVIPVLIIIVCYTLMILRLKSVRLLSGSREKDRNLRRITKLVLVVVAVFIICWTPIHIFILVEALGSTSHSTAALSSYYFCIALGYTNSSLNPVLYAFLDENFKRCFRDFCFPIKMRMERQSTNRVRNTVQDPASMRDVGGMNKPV

Structure (SMILES): CN(C(=O)/C=C/c1ccco1)[C@@H]1CC[C@@]2(O)[C@H]3Cc4ccc(O)c5c4[C@@]2(CCN3CC2CC2)[C@H]1O5.Cl
- Kd [1]: 0.22 nM
- Kd (Mu-type opioid receptor): 0.78 nM
- Kd [2]: 7.93 nM
- MPE (Mus musculus [3]): 100%
- Emax [4]: 96.1%
- Activity (Mus musculus [5]): Active
- Activity (Mus musculus [6]): Active
- Activity (Mus musculus [7]): inactive
- Activity [8]: Toxic
- Activity [9]: Toxic
- Activity [10]: Toxic
- Activity [11]: Non-Toxic
- Drug uptake [12]: Active
- Activity (Mus musculus [13]): inactive
- Activity (Mus musculus [14]): inactive
- Activity (Mus musculus [15]): inactive
- blood plasma ratio at 10 min (in vivo [16]): 0.762
- blood plasma ratio at 0.5 h (in vivo [17]): 0.645
- blood plasma ratio at 1 h (in vivo [18]): 1.45
